{
  "source": "ChEMBL document CHEMBL4765481",
  "about": "“Sialyltransferase Inhibitors Suppress Breast Cancer Metastasis” (J Med Chem, 2021)",
  "key": {"MDA-MB-231 [1]": {"tested_on": "MDA-MB-231", "assay": "Inhibition of Sialyltransferase in human MDA-MB-231 cells assessed as decrease p-talin-1 association with integrins beta1 and beta 3 after 48 hrs by immunofluorescence and coimmunoprecipitation assay", "format": "cell-based"}, "[2]": {"biological_target": "T1, CMP-N-acetylneuraminate-beta-1,4-galactoside alpha-2,3-sialyltransferase (Rattus norvegicus, UniProt Q02734)", "T1 sequence (Q02734 whole entry)": "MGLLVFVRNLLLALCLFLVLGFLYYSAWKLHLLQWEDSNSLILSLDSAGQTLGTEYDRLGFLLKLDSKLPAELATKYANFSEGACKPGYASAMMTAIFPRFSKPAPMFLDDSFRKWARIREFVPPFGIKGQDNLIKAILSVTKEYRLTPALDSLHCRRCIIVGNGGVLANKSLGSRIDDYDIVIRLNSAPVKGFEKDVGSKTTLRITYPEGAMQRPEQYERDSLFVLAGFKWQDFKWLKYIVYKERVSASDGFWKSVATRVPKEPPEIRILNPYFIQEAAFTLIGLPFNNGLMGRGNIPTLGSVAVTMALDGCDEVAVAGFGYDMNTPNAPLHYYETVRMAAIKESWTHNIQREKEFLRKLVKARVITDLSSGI", "assay": "Inhibition of rat alpha-2,3-N-ST3GALIII assessed as reduction in sialylated-product formation using Gal-beta1-4Glc and CMP-NeuSAc incubated for 1.5 hrs by reverse-phase HPLC analysis"}, "[3]": {"biological_target": "T2, Beta-galactoside alpha-2,6-sialyltransferase 1 (Homo sapiens, UniProt P15907)", "T2 sequence (P15907 whole entry)": "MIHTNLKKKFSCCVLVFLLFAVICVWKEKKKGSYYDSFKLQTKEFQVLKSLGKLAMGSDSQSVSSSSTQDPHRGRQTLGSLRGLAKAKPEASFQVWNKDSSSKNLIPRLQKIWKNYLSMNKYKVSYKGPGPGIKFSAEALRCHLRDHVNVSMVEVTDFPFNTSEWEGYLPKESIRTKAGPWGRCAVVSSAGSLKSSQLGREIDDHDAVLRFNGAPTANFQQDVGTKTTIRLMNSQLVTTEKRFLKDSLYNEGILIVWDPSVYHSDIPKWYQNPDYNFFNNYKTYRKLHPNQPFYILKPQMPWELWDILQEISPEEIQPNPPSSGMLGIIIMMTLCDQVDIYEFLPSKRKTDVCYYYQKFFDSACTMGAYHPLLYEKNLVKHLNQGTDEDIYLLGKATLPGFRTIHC", "assay": "Inhibition of human alpha-2,6-ST6GAL1 assessed as reduction in sialylated-product formation using Gal-beta1-4GlcNac and CMP-NeuSAc incubated for 15 mins by reverse-phase HPLC analysis"}, "MDA-MB-231 [4]": {"tested_on": "MDA-MB-231", "assay": "Antitumor activity against luciferase-tagged human MDA-MB-231 cells xenografted in BALB/c mouse assessed as induction of delayed lung metastasis at 10 mg/kg/3 days, ip measured after 8 weeks", "format": "functional, organism-based"}, "MDA-MB-231 [5]": {"tested_on": "MDA-MB-231", "assay": "Inhibition of Sialyltransferase in human MDA-MB-231 cells assessed as reduction in FAK Tyr925 phosphorylation level at 10 to 20 uM incubated for 48 hrs by immunoblot analysis", "format": "cell-based", "conditions": "dose 10-20 µM"}},
  "note": "The source made the active and inactive calls. The rule behind the calls is not given here.",
  "data": [
    {"smiles": "C[C@H](CCC(=O)OCCOCCOCCN=[N+]=[N-])[C@H]1CC[C@H]2[C@@H]3CC[C@@H]4C[C@H](OC(=O)[C@H](CC(=O)O)Nc5ccc([N+](=O)[O-])c6nonc56)CC[C@]4(C)[C@H]3CC[C@]12C", "values": [
      {"measurement": "inhibition", "setting": "MDA-MB-231 [1]", "result": "Dose-dependent effect"},
      {"measurement": "IC50", "setting": "[2]", "result": 1.74, "unit": "µM"},
      {"measurement": "IC50", "setting": "[3]", "result": 3.6, "unit": "µM"},
      {"measurement": "Activity", "setting": "MDA-MB-231 [4]", "result": "Active"},
      {"measurement": "inhibition", "setting": "MDA-MB-231 [5]", "result": "Dose-dependent effect"}
    ]}
  ]
}
